Results from patent publication US20170065520A1, “STABLE LIPOSOMAL FORMULATIONS OF RAPAMYCIN AND RAPAMYCIN DERIVATIVES FOR TREATING CANCER” (Manli International Ltd, priority 2015, published 2017).

Test: In vitro drug release assay (dialysis tube, 50 kDal cut-off)
Assay type: physicochemical
Settings: control formulation (drug in 15% acetonitrile and 85% water), within 48 h
Experimental: An in vitro drug release assay was used to determine release profiles of umirolimus, sirolimus, and everolimus. Umirolimus-loaded liposomes were prepared as described above in EXAMPLE 1, and sirolimus-loaded and everolimus-loaded liposomes were prepared as described above in EXAMPLE 4.
For each drug, a control formulation was prepared containing 1.0 mg of drug in 5 mL of a solution containing 15% acetonitrile and 85% water. 5 mL of the control formulations and the liposomal formulations for each drug were loaded into separate dialysis tubes having a molecular weight cut-off of 50 kDal.
Each loaded dialysis tube was placed in an individual 50 mL tube containing 40 mL of release media (15% acetonitrile and 0.5% SDS). The release media in each tube was sampled after 1, 2, 5, 7, 24, 30, and 48 h and the drug concentration in the release media was determined by HPLC as described above in EXAMPLE 1. The cumulative drug release percentage versus release time was plotted for all samples. The results are shown in FIGS. 1, 2, and 3 for umirolimus, everolimus, and sirolimus, respectively.

## 40-alkoxyalkyl-rapamycin [umirolimus]
  starting amount of drug diffused out of the dialysis tubing: 67%
